In brackets after ≈: the same amount, converted by molar mass.
The molecules below were run on Fusarium verticillioides (assay: Antifungal activity against Fusarium moniliforme at 50 ug/ml after 48 hrs by agar well diffusion method). Details: read-out: DIZ.
Type: functional
With `CC(=O)N1CCN(c2ccc(OCC3COC(Cn4ccnc4)(c4ccc(Cl)cc4Cl)O3)cc2)CC1` (stereo not given) [KETOCONAZOLE] the zone of inhibition at 50 µg/mL was 25 mm.

These molecules were tested on Aspergillus niger (assay: Antifungal activity against Aspergillus niger at 50 ug/ml after 48 hrs by agar well diffusion method). Details: read-out: DIZ.
Type: functional
`CC(=O)N1CCN(c2ccc(OCC3COC(Cn4ccnc4)(c4ccc(Cl)cc4Cl)O3)cc2)CC1` (stereo not given) [KETOCONAZOLE] was tested, and the zone of inhibition at 50 µg/mL was 28 mm.

What follows are molecules tested on Fusarium verticillioides (assay: Antifungal activity against Fusarium moniliforme after 48 to 72 hrs by microdilution method). Details: not given.
Type: functional
`CC(=O)N1CCN(c2ccc(OCC3COC(Cn4ccnc4)(c4ccc(Cl)cc4Cl)O3)cc2)CC1` (stereo not given) [KETOCONAZOLE] gave an MIC of 27 µg/mL (≈ 50.8 µM).

The molecules below were run on Fusarium oxysporum (assay: Antifungal activity against Fusarium oxysporum at 25 ug/ml after 48 hrs by agar well diffusion method). Details: read-out: DIZ.
Type: functional
`CC(=O)N1CCN(c2ccc(OCC3COC(Cn4ccnc4)(c4ccc(Cl)cc4Cl)O3)cc2)CC1` (stereo not given) [KETOCONAZOLE] was tested, and the zone of inhibition at 25 µg/mL was 23 mm.

These molecules were tested on Aspergillus niger (assay: Antifungal activity against Aspergillus niger after 48 to 72 hrs by microdilution method). Details: not given.
Type: functional
For `CC(=O)N1CCN(c2ccc(OCC3COC(Cn4ccnc4)(c4ccc(Cl)cc4Cl)O3)cc2)CC1` (stereo not given) [KETOCONAZOLE], the MIC was 28 µg/mL (≈ 52.7 µM).

These molecules were tested on Fusarium oxysporum (assay: Antifungal activity against Fusarium oxysporum at 75 ug/ml after 48 hrs by agar well diffusion method). Details: read-out: DIZ.
Type: functional
For `CC(=O)N1CCN(c2ccc(OCC3COC(Cn4ccnc4)(c4ccc(Cl)cc4Cl)O3)cc2)CC1` (stereo not given) [KETOCONAZOLE], the zone of inhibition at 75 µg/mL was 32 mm.

The molecules below were run on Fusarium verticillioides (assay: Antifungal activity against Fusarium moniliforme at 75 ug/ml after 48 hrs by agar well diffusion method). Details: read-out: DIZ.
Type: functional
Work on `CC(=O)N1CCN(c2ccc(OCC3COC(Cn4ccnc4)(c4ccc(Cl)cc4Cl)O3)cc2)CC1` (stereo not given) [KETOCONAZOLE] yielded a zone of inhibition at 75 µg/mL of 31 mm.

These molecules were tested on Fusarium oxysporum (assay: Antifungal activity against Fusarium oxysporum at 50 ug/ml after 48 hrs by agar well diffusion method). Details: read-out: DIZ.
Type: functional
With `CC(=O)N1CCN(c2ccc(OCC3COC(Cn4ccnc4)(c4ccc(Cl)cc4Cl)O3)cc2)CC1` (stereo not given) [KETOCONAZOLE] the zone of inhibition at 50 µg/mL was 22 mm.

Each molecule was assayed on Aspergillus niger (assay: Antifungal activity against Aspergillus niger at 100 ug/ml after 48 hrs by agar well diffusion method). Details: read-out: DIZ.
Type: functional
Work on `CC(=O)N1CCN(c2ccc(OCC3COC(Cn4ccnc4)(c4ccc(Cl)cc4Cl)O3)cc2)CC1` (stereo not given) [KETOCONAZOLE] yielded a zone of inhibition at 100 µg/mL of 37 mm.

These molecules were tested on Fusarium verticillioides (assay: Antifungal activity against Fusarium moniliforme at 100 ug/ml after 48 hrs by agar well diffusion method). Details: read-out: DIZ.
Type: functional
`CC(=O)N1CCN(c2ccc(OCC3COC(Cn4ccnc4)(c4ccc(Cl)cc4Cl)O3)cc2)CC1` (stereo not given) [KETOCONAZOLE] gave a zone of inhibition at 100 µg/mL of 34 mm.

These molecules were tested on Aspergillus niger (assay: Antifungal activity against Aspergillus niger at 25 ug/ml after 48 hrs by agar well diffusion method). Details: read-out: DIZ.
Type: functional
Molecule `CC(=O)N1CCN(c2ccc(OCC3COC(Cn4ccnc4)(c4ccc(Cl)cc4Cl)O3)cc2)CC1` (stereo not given) [KETOCONAZOLE] has a zone of inhibition at 25 µg/mL of 24 mm.

Each molecule was assayed on Fusarium oxysporum (assay: Antifungal activity against Fusarium oxysporum at 100 ug/ml after 48 hrs by agar well diffusion method). Details: read-out: DIZ.
Type: functional
Work on `CC(=O)N1CCN(c2ccc(OCC3COC(Cn4ccnc4)(c4ccc(Cl)cc4Cl)O3)cc2)CC1` (stereo not given) [KETOCONAZOLE] yielded a zone of inhibition at 100 µg/mL of 38 mm.

What follows are molecules tested on Fusarium oxysporum (assay: Antifungal activity against Fusarium oxysporum after 48 to 72 hrs by microdilution method). Details: not given.
Type: functional
For `CC(=O)N1CCN(c2ccc(OCC3COC(Cn4ccnc4)(c4ccc(Cl)cc4Cl)O3)cc2)CC1` (stereo not given) [KETOCONAZOLE], the MIC was 24 µg/mL (≈ 45.2 µM).

What follows are molecules tested on Fusarium verticillioides (assay: Antifungal activity against Fusarium moniliforme at 25 ug/ml after 48 hrs by agar well diffusion method). Details: read-out: DIZ.
Type: functional
Work on `CC(=O)N1CCN(c2ccc(OCC3COC(Cn4ccnc4)(c4ccc(Cl)cc4Cl)O3)cc2)CC1` (stereo not given) [KETOCONAZOLE] yielded a zone of inhibition at 25 µg/mL of 21 mm.

Each molecule was assayed on Aspergillus niger (assay: Antifungal activity against Aspergillus niger at 75 ug/ml after 48 hrs by agar well diffusion method). Details: read-out: DIZ.
Type: functional
`CC(=O)N1CCN(c2ccc(OCC3COC(Cn4ccnc4)(c4ccc(Cl)cc4Cl)O3)cc2)CC1` (stereo not given) [KETOCONAZOLE] was tested, and the zone of inhibition at 75 µg/mL was 34 mm.
